The values that follow are results of earlier work, collected in US20240108579A1, “UTIDELONE LIPOSOME COMPOSITION, AND PREPARATION METHOD THEREFOR AND USE THEREOF” (Chengdu Biostar Pharmaceuticals, LTD., priority 2021, published 2024).

Each structure is given as a SMILES string. Like-named read-outs stand apart in the source and are kept apart here.

In the case of `CC1=CCC(C(C)=Cc2csc(C)n2)OC(=O)CC(O)C(C)(C)C(=O)C(C)C(O)C(C)CCC1` (stereo not drawn) [Utidelone, 4,8-dihydroxy-5,5,7,9,13-pentamethyl-16-[1-methyl-2-(2-methyl-thiazole-4-yl)-vinyl]-hexadecoxetane-13-en-2,6-one lactone], the “solubility (in words)” value (ethanol, methanol, ethyl acetate, and chloroform) is listed as “easily soluble”. Further, where the note is “water”, the “saturated solubility in water” value is on record as “less than 1 μg/ml” and the “solubility (in words)” value was “insoluble”.
